Reference: patent US9944721B2, “Polysialic acid and use for treatment of neurodegenerative and neuroinflammatory diseases” (RHEINISCHE FRIEDRICH-WILHELMS UNIVERSITÄT BONN, priority 2013, dated 2018)

Legend:
[1] = tested on: human microglial line derived from induced pluripotent stem cells (expressing Siglec-11); test: MTT cell viability of human microglia treated with sialic acid forms; type: cell-based
Protocol: A human microglial line derived from induced pluripotent stem cells as described in WO 2010/125110 was used to study the effect of sialic acid forms with different chain length. Human microglial cells were cultured on 5 μg/ml poly-L-lysin (PLL, Sigma)-coated dishes in N2-medium containing DMEM/F12 culture medium (Gibco) supplemented with 1% N2 (Invitrogen), 0.48 mM L-glutamine (Gibco) and optionally 100 μg/ml penicillin/streptomycin (Gibco). Cells were cultured with high density and splitted 1:2 when required.
The effect of different length and fractions of oligosialic acids and polysialic acids on the human microglial lines were analyzed by determination of cell viability normalized to the cell number and after treatment with monomeric sialic acid (SA, molecular weight of 0.3 kDa, Nacalai Tesque ING, Japan) and sialic acids consisting of 3 monomers (Tri-SA; molecular weight of 0.9 kDa, Nacalai Tesque ING, Japan) and sialic acids consisting of 6 monomers (Hexa-SA; molecular weight of 1.9 kDa, Nacalai Tesque ING, Japan), PSA with a number of sialic acid monomers between 14 and 26 (PSA-20; low molecular weight of PSA between 4.3 and 8 kDa for >90% of the substance) and PSA with a length between 46 and 110 of sialic acid monomers (PSA-60; medium molecular weight of PSA between 14.2 and 34 kDa for >90% of the substance).
The microglial cells were cultured in medium as described above and treated in culture with the different sialic acid forms.
Cell viability was determined by the MTT (3-(4,5-Dimethylthiazol-2-yl)-2,5-diphenyltetrazolium bromide, Millipore) assay after 24 hours treatment with distinct sialic acid forms with different chain length and normalized to the cell number. The light absorbance of the purple formazan in living cells was determined by a spectrophotometer at a wavelength of 570 nm (Perkin Elmer, Envision Multiplate Reader).

[2] = tested on: humanized Siglec-11 transgenic mice; test: Septic encephalopathy model: TNF-alpha gene transcripts after repeated systemic LPS; type: in vivo; details: 4x LPS plus 4x PSA-20 1 μg per gram body weight i.p., 24 hours after last application
Protocol: Humanized Siglec-11 transgenic mice (Wang Y, 2009, dissertation, University Bonn, uniform resource name: urn:nbn:de:hbz:5N-18095) expressing human Siglec-11 under the Iba1-promoter in microglia and wildtype littermate control mice were used in this experiment. For gene transcript analysis, RNA was isolated from brains with Trizol followed with the RNeasy Mini Kit (Qiagen). Reverse transcription of RNA was performed with SuperScript III reverse transcriptase (Invitrogen) and hexamer random primers (Roche Molecular Biochemicals). Quantitative RT-PCR with specific oligonucleotides was performed with SYBR Green PCR Master Mix (Applied Biosystems) using the ABI 5700 Sequence Detection System (Perkin Elmer) and amplification protocol for the ABI 5700 Sequence Detection System. […] Results were analyzed with the ABI 5700 Sequence Detection System v.1.3 after establishing the reaction efficiency for each primer pair. Quantification using the delta-CT method was carried out.
Mice were either treated intraperitoneally with 4× lipopolysaccharide (LPS from Salmonella abortus equi S-form (ENZO Life Science), 1 μg per gram body weight) or 4×LPS (1 μg per gram body weight) plus 4×PSA-20 (1 μg per gram body weight) or 4×PBS. […] Mice were analyzed 24 hours after the last application.
Gene transcripts for TNF-alpha were determined from the total brain tissue by qRT-PCR at 24 hours after the last application.

[3] = tested on: humanized Siglec-11 transgenic mice; test: Experimental autoimmune encephalomyelitis (animal model of multiple sclerosis); type: in vivo
Protocol: Experimental autoimmune encephalomyelitis was induced in humanized Siglec-11 transgenic mice (humanized Siglec-11 mouse) and littermate control mice (normal control mice). Therefore, adult 6-8 weeks-old female humanized Siglec-11 transgenic mice (Wang et al. 2009, dissertation, University Bonn, uniform resource name: urn:nbn:de:hbz:5N-18095) and littermate control mice were immunized with 100 μg of myelin oligodendrocyte glycoprotein MOG (amino acids 35-55; Seqlab) in […] Freunds adjuvant (both DIFCO; BD GmbH, Heidelberg, Germany). Pertussis toxin (200 ng; List Biological Laboratories, Epsom, UK) was injected on days 0 and 2 of immunization. Clinical signs were scored as following: 0, no clinical signs; 1, complete limp tail; 2, complete limp tail and weakness of hindlimbs; 3, paraparesis of at least one hindlimb; 4, complete hindlimb paraparesis and weakness of forelimbs; and 5, fore- and hindlimb paralysis or moribund. Only mice having disease onset (clinical score of >=1) until day 20 were used for experiments.
Low molecular weight PSA-20 (1 μg per g body weight) was applied intraperitoneally into the mice on the day of disease onset (clinical score at least 1) and daily on the following three consecutive days. […] The cumulative disease score from the first day of treatment until day 25 was determined.

For poly-(α(2→8)Neu5Ac)n [PSA-20], the “metabolic activity of the microglial cells (MTT, normalized to cell number)” value ([1]; 24 hours treatment, 0.15 μM, 0.5 μM and 1.5 μM, FIG. 2B) was “did not affect the metabolic activity”, the “Intact viability of human microglia” value ([1]; summary of Example 3, MTT, 24 hours) was “Yes” and the “gene transcripts for TNF-alpha in the spleen” value [2] was “No change”. For the same substance, the “gene transcription levels of TNF-alpha in the brain tissue” value ([2]; Siglec-11 transgenic mice) was “reduced gene transcription levels”, the “clinical signs (clinical score)” value ([3]; Siglec-11 transgenic mice, 1 μg per g body weight i.p. from disease onset, 4 days, from day 14 onwards, FIG. 8A) was “improved clinical signs” and the cumulative disease score ([3]; first day of treatment until day 25, FIG. 8B) was “improved the clinical signs of disease”.
